Measured values taken from patent publication EP0272791A2 (priority 1986, dated 1988).
Several values for one entry are separate records, joined by “and”; a condition that tells them apart may be missing. Identical values can stand only once. Entries after “also recorded” stand apart in the source; their conditions may differ. Like-named read-outs stand apart in the source and are kept apart here.

Legend:
[1] = system: multiple myeloma; assay: differential staining cytotoxicity assay (DiSC), fresh tumor specimens; details: metachronous assays, no intervening therapy, patient MM-B, two dates
[2] = system: Small Cell Lung Cancer; assay: as above; format: cell-based, human; details: active = < 30% cell survival; concentrations of Table 1
[3] = system: Non-Small Cell Lung Cancer; assay: as above; format: cell-based, human; details: active = < 30% cell survival; concentrations of Table 1
[4] = system: CLL; details: for Treated patients, Sensitive / Untreated patients, Sensitive: sensitive: < 30% cell survival
[5] = system: Assorted solid tumors; assay: differential staining cytotoxicity assay (DiSC), fresh tumor specimens; format: cell-based, human; details: for % of all specimens tested which were "sensitive" in vitro (< 30% cell survival): dexamethasone 0.4 μg/ml, cytarabine […], continuous 4-day exposure
[6] = system: ANLL; assay: as above; format: cell-based, human; details: for % of all specimens tested which were "sensitive" in vitro (< 30% cell survival): dexamethasone 0.4, cytarabine 3.3, vincristine […] continuous 4-day exposure, mechlorethamine 3.5, doxorubicin 1.67 μg/ml 1-hour exposure
[7] = system: tumor cell specimens; assay: differential staining cytotoxicity assay (DiSC), general statements on drug exposure; format: cell-based, human; details: for activity in the assay at a 1-hour exposure (in words): must be tested at a continuous exposure
[8] = system: ALL; details: for Treated patients, Resistant / Untreated patients, Resistant / Treated patients, Sensitive / Untreated patients, Sensitive: No. of patients; for Treated patients, Resistant / Untreated patients, Resistant: resistant: > 30% cell survival; for Treated patients, Sensitive / Untreated patients, Sensitive: sensitive: < 30% cell survival; for in vitro activity (in words): active = < 30% cell survival, concentrations of Table 1; for % of all specimens tested which were "sensitive" in vitro (< 30% cell survival): dexamethasone 0.4, cytarabine 3.3, vincristine […] continuous 4-day exposure, mechlorethamine 3.5, doxorubicin 1.67 μg/ml 1-hour exposure
[9] = system: CML-blast crisis; assay: differential staining cytotoxicity assay (DiSC), fresh tumor specimens; details: patient CML-BC, 11/09/82 before and 12/14/82 after V + P
[10] = system: non-Hodgkin's lymphoma, multiple myeloma, and blast crisis CML; details: data not shown; neoplasms considered together
[11] = system: CLL; assay: cells; details: Homo sapiens, read-out: average % cell survival in vitro, Vincristine 0.08 µg/ml, continuous exposure; metachronous assays, no intervening therapy
[12] = active = < 30% cell survival, concentrations of Table 1
[13] = Cytarabine 1.0 µg/ml, continuous 4-day exposure
[14] = Dexamethasone 0.4 µg/ml, continuous 4-day exposure
[15] = Dexamethasone 4.0 µg/ml, continuous 4-day exposure
[16] = No. of patients, Dexamethasone 0.4 µg/ml, continuous 4-day exposure, resistant: > 30% cell survival
[17] = No. of patients, Dexamethasone 0.4 µg/ml, continuous 4-day exposure
[18] = No. of patients, Dexamethasone 4.0 µg/ml, continuous 4-day exposure, resistant: > 30% cell survival
[19] = No. of patients, Dexamethasone 4.0 µg/ml, continuous 4-day exposure
[20] = Doxorubicin 1.67 µg/ml, 1-hr exposure
[21] = cells from relapsed patients compared with untreated patients
[22] = Vincristine 0.08 µg/ml, continuous 4-day exposure
[23] = Vincristine 0.08 µg/ml, continuous exposure, metachronous assays, no intervening therapy

## O=NN(CCCl)C(=O)NCCCl [Carmustine, carmustine]
[1]; Homo sapiens, 1 h, read-out: average % cell survival in vitro, Carmustine […], 1 hour exposure
  viability at 11 µg/mL: 15%

## N.N.[Cl][Pt][Cl] [Cisplatin, cisplatin]
[2]
  in vitro activity (in words): high activity
[3]
  in vitro activity (in words): most active agent tested; also recorded: moderate activity
[4]; [12]
  in vitro activity (in words): completely refractory

## Nc1ccn([C@@H]2O[C@H](CO)[C@@H](O)[C@@H]2O)c(=O)n1 [Cytarabine, cytarabine]
[5]
  % of all specimens tested which were "sensitive" in vitro (< 30% cell survival): 3% (31)
[6]; [12]
  in vitro activity (in words): active
[6]
  % of all specimens tested which were "sensitive" in vitro (< 30% cell survival): 76% (34)
[7]
  activity in the assay at a 1-hour exposure (in words): not active
[8]; [13]
  Treated patients, Resistant: 7
  Untreated patients, Resistant: 4
  Treated patients, Sensitive: 2
  Untreated patients, Sensitive: 6
[8]
  in vitro activity (in words): active
  % of all specimens tested which were "sensitive" in vitro (< 30% cell survival): 68% (19)
[8]; the higher concentration of cytarabine
  resistance in the assay, relapsed (treated) vs untreated patients (in words): significantly more resistant

## C[C@@H]1C[C@H]2[C@@H]3CCC4=CC(=O)C=C[C@]4(C)[C@@]3(F)[C@@H](O)C[C@]2(C)[C@@]1(O)C(=O)CO [Dexamethasone, dexamethasone]
[5]; [12]
  in vitro activity (in words): not active
[5]
  % of all specimens tested which were "sensitive" in vitro (< 30% cell survival): 0% (34)
[6]
  % of all specimens tested which were "sensitive" in vitro (< 30% cell survival): 7% (41)
[7]
  activity in the assay at a 1-hour exposure (in words): not active
[8]; [14]
  Treated patients, Resistant: 7
  Untreated patients, Resistant: 6
  Treated patients, Sensitive: 4
  Untreated patients, Sensitive: 16
[8]; [15]
  Treated patients, Resistant: 7
  Untreated patients, Resistant: 5
  Treated patients, Sensitive: 3
  Untreated patients, Sensitive: 13
[8]
  in vitro activity (in words): active
  % of all specimens tested which were "sensitive" in vitro (< 30% cell survival): 61% (33)
[4]; [16]
  Treated patients, Resistant: 13
  Untreated patients, Resistant: 18
[4]; [17]
  Treated patients, Sensitive: 2
  Untreated patients, Sensitive: 10
[4]; [18]
  Treated patients, Resistant: 10
  Untreated patients, Resistant: 15
[4]; [19]
  Treated patients, Sensitive: 2
  Untreated patients, Sensitive: 10
[9]; Dexamethasone 4.0 μg/ml, continuous exposure
  % cell survival: 68%
[9]; Homo sapiens, read-out: % cell survival, Dexamethasone 4.0 μg/ml, continuous exposure
  viability at 4 µg/mL: 73%

## COc1cccc2c1C(=O)c1c(O)c3c(c(O)c1C2=O)C[C@@](O)(C(=O)CO)C[C@@H]3O[C@H]1C[C@H](N)[C@H](O)[C@H](C)O1 [Doxorubicin, doxorubicin]
[6]
  % of all specimens tested which were "sensitive" in vitro (< 30% cell survival): 48% (27)
[8]; [20]
  Treated patients, Resistant: 7
  Untreated patients, Resistant: 1
  Treated patients, Sensitive: 4
  Untreated patients, Sensitive: 10
[8]
  in vitro activity (in words): somewhat more sensitive than ANLL
  % of all specimens tested which were "sensitive" in vitro (< 30% cell survival): 72% (18)
[8]; [21]
  resistance in the assay, relapsed (treated) vs untreated patients (in words): significantly more resistant
[4]; prior treatment with alkylating agents (usually chlorambucil or cyclophosphamide) with or without prednisone
  resistance in vitro, previously treated vs previously untreated patients (in words): significantly more resistant
[10]
  resistance in vitro, previously treated vs previously untreated patients (in words): significantly more resistant
[9]; Doxorubicin 1.6 μg/ml, 1 hour exposure, 60 min
  % cell survival: 86% and 59%

## N[C@@H](Cc1ccc(N(CCCl)CCCl)cc1)C(=O)O [Melphalan, melphalan]
[4]
  Treated patients, Resistant: 11 and 8

## CC[C@]1(O)C[C@H]2CN(CCc3c([nH]c4ccccc34)[C@@](C(=O)OC)(c3cc4c(cc3OC)N(C=O)[C@H]3[C@@](O)(C(=O)OC)[C@H](OC(C)=O)[C@]5(CC)C=CCN6CC[C@]43[C@@H]65)C2)C1 [Vincristine, vincristine]
[6]
  % of all specimens tested which were "sensitive" in vitro (< 30% cell survival): 22% (23)
[7]
  activity in the assay at a 1-hour exposure (in words): not active
[8]; [22]
  Treated patients, Resistant: 10
  Untreated patients, Resistant: 6
  Treated patients, Sensitive: 1
  Untreated patients, Sensitive: 10
[8]; [23]
  average % cell survival in vitro: 44% and 71%
[8]
  in vitro activity (in words): considerably more sensitive
  % of all specimens tested which were "sensitive" in vitro (< 30% cell survival): 56% (25)
[8]; [21]
  resistance in the assay, relapsed (treated) vs untreated patients (in words): significantly more resistant
[4]; [23]
  average % cell survival in vitro: 48%
[11]
  viability at 0.08 µg/mL: 46%
[1]; Homo sapiens, read-out: average % cell survival in vitro, Vincristine 0.08 µg/ml, continuous exposure
  viability at 0.08 µg/mL: 0%
[1]; Vincristine 0.08 µg/ml, continuous exposure
  average % cell survival in vitro: 0%
[9]; Homo sapiens, read-out: % cell survival, Vincristine 0.08 μg/ml, continuous exposure
  viability at 0.08 µg/mL: 69%
[9]; Vincristine 0.08 μg/ml, continuous exposure
  % cell survival: 71%

## O=P1(N(CCCl)CCCl)NCCCO1 (centres unmarked) [cyclophosphamide]
[7]
  activity in vitro (in words): not active in vitro
